Laboratory results published in ChEMBL document CHEMBL4421720, “Tetrahydropyridopyrazines modulators of gpr6” (2016).

Target: G-protein coupled receptor 6 (Homo sapiens, UniProt P46095)
Assay: Modulation activity at GPR6 receptor (unknown origin) expressed in CHO-K1 cells assessed as inhibition of constitutive cAMP activity incubated for 45 mins by Perkin Elmer Lance HTRF Ultrac-AMP assay
Format: functional, cell-based

Sequence of G-protein coupled receptor 6 (P46095 whole entry): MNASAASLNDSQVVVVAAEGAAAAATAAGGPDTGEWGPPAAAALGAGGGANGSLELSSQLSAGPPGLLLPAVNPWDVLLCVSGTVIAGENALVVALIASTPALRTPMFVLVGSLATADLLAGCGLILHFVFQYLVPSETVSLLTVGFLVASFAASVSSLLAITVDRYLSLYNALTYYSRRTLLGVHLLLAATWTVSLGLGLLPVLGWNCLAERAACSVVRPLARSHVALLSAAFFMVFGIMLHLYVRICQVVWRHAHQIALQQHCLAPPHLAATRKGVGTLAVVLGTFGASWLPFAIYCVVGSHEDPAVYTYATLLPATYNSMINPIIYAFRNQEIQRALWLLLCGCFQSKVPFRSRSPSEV

Row | Compound | IC50 | IC50 (cho-k1)
1 | CC(=O)N1CCc2nc(N3CCC(C(=O)c4cc(Cl)ccc4F)CC3)c(NC(C)C)nc2C1 | 13.8 µM | 
2 | CC(C)Nc1nc2c(nc1N1CCC(C(=O)c3cc(Cl)ccc3F)CC1)CCN(C)C2 |  | 13.7 µM
